From PubChem BioAssay AID1963875 (Molecular Pharmacology Branch, DTP, NCI, 2024)
Values joined by “and” are separate entries in the source; they are usually repeats but may differ in a detail not shown here. Equal entries are not always repeated.

Test system: KRAS-mutant PDC complex spheroid viability
Assay: Anticancer human tumor 186277-243-T-J2-PDC patient-derived colon adenocarcinoma cell line growth inhibition [KRAS2]
Conditions: for viability, T/C: stronger effect = lower value; active means viability on the fitted dose curve at most 10% of control; inactive means the rest
Outline: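 Combination screen of spheroid viability in tumor-cell co-cultures with endothelial (HUVEC) and mesenchymal stem cell stroma. Each agent was tested in half-log dilutions, topping at clinical Cmax or at 10 microM without a known Cmax.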

[1] = curve of first compound, second compound 0.1 µM
[2] = curve of first compound, second compound 0.316 µM
[3] = curve of first compound, second compound 1 µM
[4] = curve of first compound, second compound 3.16 µM
[5] = curve of first compound, second compound 10 µM
[6] = second compound 0.1 µM, first compound 0.000316 µM
[7] = second compound 0.1 µM, first compound 0.001 µM
[8] = second compound 0.1 µM, first compound 0.00316 µM
[9] = second compound 0.1 µM, first compound 0.01 µM
[10] = second compound 0.1 µM, first compound 0.0316 µM
[11] = second compound 0.1 µM, first compound 0.1 µM
[12] = second compound 0.316 µM, first compound 0.000316 µM
[13] = second compound 0.316 µM, first compound 0.001 µM
[14] = second compound 0.316 µM, first compound 0.00316 µM
[15] = second compound 0.316 µM, first compound 0.01 µM
[16] = second compound 0.316 µM, first compound 0.0316 µM
[17] = second compound 0.316 µM, first compound 0.1 µM
[18] = second compound 1 µM, first compound 0.000316 µM
[19] = second compound 1 µM, first compound 0.001 µM
[20] = second compound 1 µM, first compound 0.00316 µM
[21] = second compound 1 µM, first compound 0.01 µM
[22] = second compound 1 µM, first compound 0.0316 µM
[23] = second compound 1 µM, first compound 0.1 µM
[24] = second compound 3.16 µM, first compound 0.000316 µM
[25] = second compound 3.16 µM, first compound 0.001 µM
[26] = second compound 3.16 µM, first compound 0.00316 µM
[27] = second compound 3.16 µM, first compound 0.01 µM
[28] = second compound 3.16 µM, first compound 0.0316 µM
[29] = second compound 3.16 µM, first compound 0.1 µM
[30] = second compound 10 µM, first compound 0.000316 µM
[31] = second compound 10 µM, first compound 0.001 µM
[32] = second compound 10 µM, first compound 0.00316 µM
[33] = second compound 10 µM, first compound 0.01 µM
[34] = second compound 10 µM, first compound 0.0316 µM
[35] = second compound 10 µM, first compound 0.1 µM
[36] = compound alone, run of 07/19/2021
[37] = compound alone, run of 07/26/2021
[38] = second compound 0.1 µM, first compound 0.316 µM
[39] = second compound 0.1 µM, first compound 1 µM
[40] = second compound 0.1 µM, first compound 3.16 µM
[41] = second compound 0.1 µM, first compound 10 µM
[42] = second compound 0.316 µM, first compound 0.316 µM
[43] = second compound 0.316 µM, first compound 1 µM
[44] = second compound 0.316 µM, first compound 3.16 µM
[45] = second compound 0.316 µM, first compound 10 µM
[46] = second compound 1 µM, first compound 0.316 µM
[47] = second compound 1 µM, first compound 1 µM
[48] = second compound 1 µM, first compound 3.16 µM
[49] = second compound 1 µM, first compound 10 µM
[50] = second compound 3.16 µM, first compound 0.316 µM
[51] = second compound 3.16 µM, first compound 1 µM
[52] = second compound 3.16 µM, first compound 3.16 µM
[53] = second compound 3.16 µM, first compound 10 µM
[54] = second compound 10 µM, first compound 0.316 µM
[55] = second compound 10 µM, first compound 1 µM
[56] = second compound 10 µM, first compound 3.16 µM
[57] = second compound 10 µM, first compound 10 µM
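Wherever viability, T/C is given: viability read after seven days of compound exposure; 100% = DMSO vehicle-treated spheroids so lower means less viable.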

CC(C)n1nc(-c2ccc3oc(N)nc3c2)c2c(N)ncnc21 + CC1OCC2(CCN(c3cnc(Sc4ccnc(N)c4Cl)c(N)n3)CC2)C1N
inactive: viability, T/C [6] 107% | viability, T/C [7] 101% | viability, T/C [8] 85.8% | viability, T/C [9] 52.1% | viability, T/C [10] 30% | viability, T/C [11] 16.1% | viability, T/C [12] 113% | viability, T/C [13] 100% | viability, T/C [14] 76.8% | viability, T/C [15] 57% | viability, T/C [16] 30.6% | viability, T/C [17] 15.3% | viability, T/C [18] 103% | viability, T/C [19] 89.7% | viability, T/C [20] 67.5% | viability, T/C [21] 49.9% | viability, T/C [22] 25.3% | viability, T/C [23] 12.9% | viability, T/C [24] 83.8% | viability, T/C [25] 73.4% | viability, T/C [26] 55.9% | viability, T/C [27] 39.5% | viability, T/C [28] 22.6% | viability, T/C [30] 57.4% | viability, T/C [31] 58.8% | viability, T/C [32] 33.7% | viability, T/C [33] 25.3% | viability, T/C [34] 13.8%
active: viability, T/C [29] 7.43% | viability, T/C [35] 5.7%
12.7 nM: IC50 [2]
1.26 nM: IC50 [5]
4.98 nM: IC50 [4]
11.9 nM: IC50 [1]
8.7 nM: IC50 [3]

Cn1ncnc1[C@H]1c2n[nH]c(=O)c3cc(F)cc(c23)N[C@@H]1c1ccc(F)cc1 + CC1OCC2(CCN(c3cnc(Sc4ccnc(N)c4Cl)c(N)n3)CC2)C1N
inactive: viability, T/C [6] 107% | viability, T/C [7] 116% | viability, T/C [8] 110% | viability, T/C [9] 90.5% | viability, T/C [10] 84.2% | viability, T/C [11] 62.3% | viability, T/C [12] 126% | viability, T/C [13] 120% | viability, T/C [14] 104% | viability, T/C [15] 84.3% | viability, T/C [16] 76.8% | viability, T/C [17] 58.1% | viability, T/C [18] 119% | viability, T/C [19] 103% | viability, T/C [20] 89.4% | viability, T/C [21] 71.4% | viability, T/C [22] 62.4% | viability, T/C [23] 50.6% | viability, T/C [24] 81.9% | viability, T/C [25] 85.6% | viability, T/C [26] 76.3% | viability, T/C [27] 60.2% | viability, T/C [28] 41.5% | viability, T/C [29] 36% | viability, T/C [30] 66.7% | viability, T/C [31] 68.4% | viability, T/C [32] 49.4% | viability, T/C [33] 41.3% | viability, T/C [34] 31.5% | viability, T/C [35] 25.4%
89.2 nM: IC50 [3]
> 100 nM: IC50 [1] | IC50 [2]
4.16 nM: IC50 [5]
18.7 nM: IC50 [4]

COC(=O)c1ccc2c(C(=Nc3ccc(N(C)C(=O)CN4CCN(C)CC4)cc3)c3ccccc3)c(O)[nH]c2c1
inactive: viability, T/C (compound 0.0316 µM) 93.8% [middle of 5 runs] | viability, T/C (compound 0.1 µM) 104% [middle of 5 runs] | viability, T/C (compound 0.316 µM) 99.4% [middle of 5 runs] | viability, T/C (compound 1 µM) 107% [middle of 5 runs]
16% [middle of 5 runs]: viability, T/C (compound 10 µM)
3.62 µM [middle of 4 runs]: IC50 (curve of compound)

C=CC(=O)N1CCN(c2nc(OCC3CCCN3C)nc3c2CCN(c2cccc4cccc(C)c24)C3)CC1CC#N (configuration not stated)
inactive: viability, T/C (compound 0.0316 µM) 98.9% [middle of 16 runs]
1.75 µM [middle of 5 runs]: IC50 [37]
1.82 µM [middle of 4 runs]: IC50 [36]

CCNC(=O)CC1N=C(c2ccc(Cl)cc2)c2cc(OC)ccc2-n2c(C)nnc21 (configuration not stated) + CC1OCC2(CCN(c3cnc(Sc4ccnc(N)c4Cl)c(N)n3)CC2)C1N
active: viability, T/C [51] 7.45% | viability, T/C [52] 4.82% | viability, T/C [53] 4.45% | viability, T/C [54] 9.5% | viability, T/C [55] 4.12% | viability, T/C [56] 3.89% | viability, T/C [57] 2.6%
51 nM: IC50 [5]
155 nM: IC50 [4]
1050 nM: IC50 [2]
338 nM: IC50 [3]
5830 nM: IC50 [1]
inactive: viability, T/C [10] 92.5% | viability, T/C [11] 104% | viability, T/C [38] 144% | viability, T/C [39] 92.7% | viability, T/C [40] 66% | viability, T/C [41] 37% | viability, T/C [16] 108% | viability, T/C [17] 121% | viability, T/C [42] 103% | viability, T/C [43] 50.6% | viability, T/C [44] 26.5% | viability, T/C [45] 16.8% | viability, T/C [22] 97.6% | viability, T/C [23] 128% | viability, T/C [46] 52.2% | viability, T/C [47] 16.2% | viability, T/C [48] 14% | viability, T/C [49] 8.15% | viability, T/C [28] 109% | viability, T/C [29] 67.8% | viability, T/C [50] 20.9% | viability, T/C [34] 64.2% | viability, T/C [35] 30%

CC(=O)OC12COC1CC(O)C1(C)C(=O)C(O)C3=C(C)C(OC(=O)C(O)C(NC(=O)OC(C)(C)C)c4ccccc4)CC(O)(C(OC(=O)c4ccccc4)C21)C3(C)C (configuration not stated)
< 10 nM: IC50 (curve of compound)
active: viability, T/C (compound 0.01 µM) 5.72% [middle of 5 runs] | viability, T/C (compound 0.0316 µM) 3.66% [middle of 5 runs] | viability, T/C (compound 0.1 µM) 3.28% [middle of 5 runs] | viability, T/C (compound 0.316 µM) 3.46% [middle of 4 runs] | viability, T/C (compound 1 µM) 3.38% [middle of 5 runs] | viability, T/C (compound 3.16 µM) 3.74% [middle of 5 runs]

COc1cc2nccc(Oc3ccc(NC(=O)C4(C(=O)Nc5ccc(F)cc5)CC4)cc3)c2cc1OC + C=CC(=O)N1CCN(c2nc(=O)n(-c3c(C)ccnc3C(C)C)c3nc(-c4c(O)cccc4F)c(F)cc23)C(C)C1
1770 nM: IC50 [2]
1880 nM: IC50 [1]
1320 nM: IC50 [3]
101 nM: IC50 [5]
active: viability, T/C [53] 11.2% | viability, T/C [55] 9.14% | viability, T/C [56] 2.99% | viability, T/C [57] 3.53%
823 nM: IC50 [4]
inactive: viability, T/C [10] 95.2% | viability, T/C [11] 94.8% | viability, T/C [38] 100% | viability, T/C [39] 93.7% | viability, T/C [40] 13.1% | viability, T/C [41] 15.4% | viability, T/C [16] 93% | viability, T/C [17] 85.5% | viability, T/C [42] 98.2% | viability, T/C [43] 86.1% | viability, T/C [44] 12.3% | viability, T/C [45] 14% | viability, T/C [22] 98% | viability, T/C [23] 92.4% | viability, T/C [46] 101% | viability, T/C [47] 61.8% | viability, T/C [48] 12.4% | viability, T/C [49] 13.7% | viability, T/C [28] 94.5% | viability, T/C [29] 103% | viability, T/C [50] 91.2% | viability, T/C [51] 41.8% | viability, T/C [52] 9.95% | viability, T/C [34] 49.9% | viability, T/C [35] 52.7% | viability, T/C [54] 32.3%

CC1OCC2(CCN(c3cnc(Sc4ccnc(N)c4Cl)c(N)n3)CC2)C1N (configuration not stated)
7400 nM and > 10000 nM: IC50 [36]
inactive: viability, T/C (compound 0.0316 µM) 107% and 92.4% and 90.5% | viability, T/C (compound 0.1 µM) 102% [middle of 19 runs]
> 10000 nM: IC50 (compound alone, run of 07/12/2021) | IC50 [37] | IC50 (curve of compound)

O=C(c1cc(Cc2n[nH]c(=O)c3ccccc23)ccc1F)N1CCN(C(=O)C2CC2)CC1 + CNCc1ccccc1-c1csc(C(C)Nc2nc(C)nc3cc(OC)c(OC)cc23)c1
inactive: viability, T/C [10] 110% | viability, T/C [11] 101% | viability, T/C [38] 95.6% | viability, T/C [39] 114% | viability, T/C [40] 78.6% | viability, T/C [41] 32.4% | viability, T/C [16] 107% | viability, T/C [17] 102% | viability, T/C [42] 111% | viability, T/C [43] 106% | viability, T/C [44] 73.8% | viability, T/C [45] 32.7% | viability, T/C [22] 104% | viability, T/C [23] 97.2% | viability, T/C [46] 108% | viability, T/C [47] 104% | viability, T/C [48] 66.9% | viability, T/C [49] 33.8% | viability, T/C [28] 94.8% | viability, T/C [29] 107% | viability, T/C [50] 94.1% | viability, T/C [51] 16.2% | viability, T/C [52] 45.6% | viability, T/C [53] 3.95%
5690 nM: IC50 [3]
active: viability, T/C [34] 0.19% | viability, T/C [35] 0.21% | viability, T/C [54] 0.19% | viability, T/C [55] 0.14% | viability, T/C [56] 0.14% | viability, T/C [57] 0.19%
6450 nM: IC50 [1]
< 31.6 nM: IC50 [5]
639 nM: IC50 [4]
6160 nM: IC50 [2]
